{"source": "patent US20200345746A1", "about": "“Oxazine Derivative for Use in the Prevention of Alzheimer's Disease in at Risk Patents” (Novartis AG, priority 2016, published 2020)", "key": {"[1]": {"assay": "off-target binding or activity"}, "[2]": {"assay": "3-month dose-ranging study: safety and tolerability", "type": "in vivo, human", "conditions": "healthy elderly subjects, once-daily 2, 10, 35 and 85 mg over three months", "source_text": "This study is listed in ClinicalTrials.gov under the NCT02576639 Identifier code.\nThe primary purpose of this study was to expand on previous safety and tolerability data obtained over 2-week and 4-week duration in the first in human study and thereby allow initiation of future long-term efficacy trials in subjects at risk of AD. In addition, data relevant for Pharmacokinetic/Pharmacodynamic modeling was obtained in order to support dose selection decisions for future efficacy studies."}, "Aβ40 [3]": {"tested_on": "Aβ40", "assay": "Triton TX-100 soluble Aβ40 in APP23 mouse brain", "type": "in vivo", "conditions": "APP23 mice", "procedure": "(§1) Frozen mouse forebrains were weighed and homogenized in 9 volumes (w/v) of ice-cold TBS-Complete (20 mM Tris-HCl pH 7.4, 137 mM NaCl, 1× Complete [Protease Inhibitor Cocktail Tablets: 1 836 145, Roche Diagnostics GmbH, Penzberg, Germany]) by sonication (90% duty cycle, output control 5, 40-55 pulses, [Sonifier 450, Branson]). After homogenization several 50 μl aliquots were prepared for analysis and were stored at −80° C.\nHuman Aβ40 and 42 in mice was determined with the Meso Scale Discovery (MSD) 96-well MULTI-ARRAY human/rodent (6E10) Aβ40/42 Assay (Meso Scale Discovery, Rockville, Md., USA). The assay was performed according to the manufacturer's instructions except for the calibration curve and the sample preparations. TritonX-100 (TX-100) soluble Aβ40 and 42 was extracted from forebrain with 1% TX-100 using a 50 μl aliquot of each 1:10 forebrain homogenate, mixed with 50 μl 2% TX-100 in TBS complete (20 mM Tris-HCl pH 7.4, 137 mM NaCl, 1× Complete [Protease Inhibitor Cocktail Tablets: 1 836 145, Roche Diagnostics GmbH, Penzberg Germany]) to reach a final concentration of 1% TX-100 and a 1:20 forebrain dilution. The samples were incubated for 15 min on ice and vortexed every 5 min. The samples were ultra-centrifuged (100000×g, 4° C., 15 min) and 50 μl of the clear supernatants were transferred to fresh tubes. The supernatants were further diluted 1:5 in 3% Blocker A solution (from kit) to a final forebrain dilution of 1:100 and applied to the plate.\nThe calibration curve was prepared in a corresponding dilution of 1% Blocker A solution spiked with synthetic Aβ1-40 peptide (1.56-100 pg/ml) except for non-transgenic mouse brain samples: In this case, the calibration curve was prepared in a correspondingly diluted APP knockout mouse forebrain spiked with synthetic Aβ1-40 peptide (1.56-100 pg/ml). For all samples and standards 25 μl were applied per well. For each determination duplicate wells were done. The mean values from the duplicate wells were used for calculations. The relative units for samples and standards were imported into SOFTmax PRO 4.0 for calculation of standard curves and quantification of samples.\n(§2) Brain homogenates were extracted with 1% Triton X-100 in buffer and the resulting supernatant was considered to represent soluble forms of APP metabolites. In addition to Aβ40 and 42, we determined the N-terminal APP fragments sAPPα (direct cleavage product of α-secretase) and sAPPβ (Swe) (direct product of BACE1 cleavage). […] Since no change in the APP expression and Aβ generation is known to happen during this age, it is assumed that the increased values in the vehicle group (18-20 mo old) arise from “leakage” out of the Aβ deposits (which increase several fold, see below)."}, "sAPPβ (Swe)": {"tested_on": "sAPPβ (Swe)", "assay": "Triton TX-100 soluble sAPPβ (Swe) in APP23 mouse brain", "type": "in vivo", "conditions": "APP23 mice", "procedure": "as §1, §2"}, "Aβ40 [4]": {"tested_on": "Aβ40", "assay": "Formic acid soluble Aβ40 in APP23 mouse forebrain", "type": "in vivo", "procedure": "as §1\nFifty microliter of forebrain homogenate was mixed with 116.6 μl 100% formic acid, resulting in a final formic acid concentration of 70%. Samples were stored on ice and vortexed every 5 minutes. For neutralization, 50 μl of the mixture were pipetted into a new tube, and 950 μl of 1 M Tris base, containing 1× Complete Protease inhibitor, was added. Tubes were stored at room temperature overnight and then centrifuged for 15 minutes at 14000 rpm in an Eppendorf Microzentrifuge at 4° C. From the top layer, 100 μl are removed and mixed with 100 μl of 3% Blocker A solution (part of the MesoScale assay kit). This sample was either directly applied to the assay plate (dilution 1:1332) or further diluted in 1% Blocker A solution."}}}
{"smiles": "C[C@@]1(c2nc(NC(=O)c3ncc(C(F)(F)F)cc3Cl)ccc2F)CO[C@@](C)(C(F)(F)F)C(N)=N1", "note": "[Compound 1, N-(6-((3R,6R)-5-amino-3,6-dimethyl-6-(trifluoromethyl)-3,6-dihydro-2H-1,4-oxazin-3-yl)-5-fluoropyridin-2-yl)-3-chloro-5-(trifluoromethyl)picolinamide]", "values": [{"measurement": "off-target binding or activity", "setting": "[1]", "result": "no relevant off-target binding or activity"}, {"measurement": "safety and tolerability", "setting": "[2]", "result": "safe and tolerated"}, {"measurement": "Aβ40 change vs vehicle (Triton TX-100 soluble, brain)", "setting": "Aβ40 [3]; 0.03 g/kg vs vehicle", "result": "−4.6", "unit": "%"}, {"measurement": "Aβ40 change vs vehicle (Triton TX-100 soluble, brain)", "setting": "Aβ40 [3]; 0.3 g/kg vs vehicle", "result": "−43.7", "unit": "%"}, {"measurement": "treatment effects on soluble Aβ species (brain tissue and CSF Aβ40)", "setting": "Aβ40 [3]; high dose", "result": "−43.7 to −77", "unit": "%"}, {"measurement": "treatment effects on soluble Aβ species (brain tissue and CSF Aβ40)", "setting": "Aβ40 [3]; low dose", "result": "−4.6 to −20", "unit": "%"}, {"measurement": "sAPPβ (Swedish) change vs vehicle", "setting": "sAPPβ (Swe); 0.03 g/kg vs vehicle", "result": "−29.0", "unit": "%"}, {"measurement": "sAPPβ (Swedish) change vs vehicle", "setting": "sAPPβ (Swe); 0.3 g/kg vs vehicle", "result": "−77.7", "unit": "%"}, {"measurement": "reduction of soluble APP (Swe)", "setting": "sAPPβ (Swe); low dose 0.03 g/kg food", "result": 29, "unit": "%"}, {"measurement": "Formic acid soluble Aβ40 change vs vehicle", "setting": "Aβ40 [4]; APP23, 0.03 g/kg vs vehicle", "result": "−18.1", "unit": "%"}, {"measurement": "Formic acid soluble Aβ40 change vs vehicle", "setting": "Aβ40 [4]; APP23, 0.3 g/kg vs vehicle", "result": "−79.2", "unit": "%"}]}
